Assay results taken from US20240165114A1, “TREATMENT OF DIABETIC NEPHROPATHY WITH AN sGC STIMULATOR” (Cyclerion Therapeutics, Inc., priority 2019, published 2024).

Experiments:
[1] = test system: adult patients with type 2 diabetes mellitus with albuminuria; assay: Phase 2 study: hemoglobin A1c; assay type: in vivo, human; details: for Hemoglobin A1c: Between PRL and PBO Group LS Mean Change from Baseline at week 12 / Hemoglobin A1c: Within Group LS Mean Change from Baseline at Week 12: ITT
Excerpt: Other secondary objectives of this clinical study included the evaluation of the pharmacokinetic (PK) concentrations of oral IW-1973 and the exploration of the effect of oral IW-1973 on hemodynamics and metabolic effects when administered daily for approximately 12 weeks to adult patients with type 2 diabetes mellitus with albuminuria (i.e., DN patients) who were on a stable regimen of renin-angiotensin system inhibitors (RAAS inhibitors, i.e., ACEi's and ARBs).
Clinical laboratory assessments obtained during the performance of this clinical trial included: complete blood count, serum chemistry panel, urinalysis, coagulation panel, estimated glomerular filtration rate (eGFR; determined by the Chronic Kidney Disease Epidemiology Collaboration [CKD-EPI] creatinine equation), hemoglobin A1c (HbA1C), Homeostatic Model Assessment to estimate insulin resistance (HOMA-IR), platelet function assessment (using VerifyNow®, at a subset of sites), urine pregnancy, and screens for hepatitis, human immunodeficiency virus, and drugs of abuse.
This multicenter, randomized, double-blind, placebo-controlled, parallel-group study evaluated 2 dose levels of IW-1973 compared with placebo. The study population consisted of adult patients with type 2 diabetes mellitus, albuminuria, and impaired renal function. Patients had to have been taking antihyperglycemic medications for at least 12 weeks with their regimen being stable (ie, drug and dose) for at least 28 days before the Randomization Visit. Additionally, patients had to have been on a stable regimen of angiotensin-converting enzyme inhibitor (ACEi) or an angiotensin receptor blocker (ARB), for at least 28 days before the Randomization Visit. For more details, see Inclusion Criteria below. A total of 156 patients (approximately 50 patients per arm) were stratified by baseline estimated glomerular filtration rate (eGFR) into three groups: eGFR 30 to 45, >45 to 60, and >60 to 75 mL/min/1.73 m^2) and randomized approximately 1:1:1 to total daily 20 mg IW-1973, 40 mg IW-1973, or placebo.

[2] = Plasma IW-1973 concentrations / population PK in the Phase 2 study; assay type: in vivo, human
Description: Plasma IW-1973 concentrations were measured for pharmacokinetic determinations.
The population PK approach based on sparse PK data was used to determine exposure (AUC) and oral clearance (CL/F) of IW-1973. Influence of patient demographics (eg, age, race) on exposure was evaluated. In addition, exposure-effect (such as hemodynamic, exploratory biomarkers, efficacy, and safety parameters) relationships were explored. Effects of concomitant medications on IW-1973 PK was also evaluated.
Praliciguat concentrations were measured using a validated liquid chromatography tandem mass spectrometry method, as previously described (Hanrahan J P, et al. “A Randomized, Placebo-Controlled, Multiple-Ascending-Dose Study to Assess the Safety, Tolerability, Pharmacokinetics, and Pharmacodynamics of the Soluble Guanylate Cyclase Stimulator Praliciguat in Healthy Subjects” Clin Pharmacol Drug Dev. 2019, 8(5):564-575). Population PK analysis was performed using NONMEM 7.4 (Icon Development Solutions, Ellicott City, MD) to update an existing model established with data from three Phase 1 studies in healthy subjects and two phase 2a studies in patients with stable type 2 diabetes mellitus (T2D) and hypertension. The influence of patient demographics, renal function and concomitant medications on exposure were evaluated, and estimates of exposure (AUC) and oral clearance (CL/F) were determined.

plasma exposure versus dose ([2]; 20 mg and 40 mg total daily oral dose): dose-proportional exposure | time to steady state of plasma concentrations ([2]; daily oral dosing): ≤ 4 weeks | route of elimination (renal excretion) ([2]; metabolized in the liver): negligible renal excretion
SMILES: OC(CNc1nc(-c2cc(-c3ccon3)n(Cc3ccccc3F)n2)ncc1F)(C(F)(F)F)C(F)(F)F [Compound I, praliciguat]
decrease in mean HbA1c levels compared to placebo ([1]; 12 weeks of treatment): ~0.3% | Hemoglobin A1c: Between PRL and PBO Group LS Mean Change from Baseline at week 12 ([1]; PRL 20 mg): −0.23% | Hemoglobin A1c: Within Group LS Mean Change from Baseline at Week 12 ([1]; PRL 20 mg): −0.26% | Hemoglobin A1c: Between PRL and PBO Group LS Mean Change from Baseline at week 12 ([1]; PRL 40 mg): −0.30% | Hemoglobin A1c: Within Group LS Mean Change from Baseline at Week 12 ([1]; PRL 40 mg): −0.38% | Hemoglobin A1c: Between PRL and PBO Group LS Mean Change from Baseline at week 12 ([1]; PRL Combined): −0.27% | Hemoglobin A1c: Within Group LS Mean Change from Baseline at Week 12 ([1]; PRL Combined): −0.34%
